Laboratory results taken from patent US11447495B2, “Substituted benzo[f]imidazo[1,5-a][1,4]diazepines as GABA(a) receptor modulators” (priority 2016, dated 2022).
Read-outs that look alike come from different tables or passages of the source.

Experiments:
[1] = Airway hyperresponsiveness (sRaw) to methacholine in ovalbumin asthma model; assay type: in vivo, ova s/c BALB/c mice; conditions: oral gavage, 100 mg/kg twice daily for 5 days, methacholine challenge
Experimental: Compounds described herein may reduce airway hyperresponsiveness in animal models of asthma. Therefore, mice may be sensitized three times with intra-peritoneal (i.p.) injections of 2 mg/kg/d of ovalbumin (Ova) emulsified in […] on days 0, 7 and 14 in a total volume of 100 μL. In addition, mice may be challenged intra-nasally (i.n.) with 1 mg/kg/d Ova for 5 days from days 23-27. Control mice may be sensitized with Ova and challenged with saline. The airway hyperresponsiveness measurements may be carried out with DSI's Buxco® FinePointe Non-Invasive Airway Mechanics (NAM) instrument consisting of a nasal chamber in combination with the thoracic chamber that allows the computation of specific airway resistance (sRaw). Treated conscious, spontaneously breathing Ova S/C mice may be exposed to aerosolized phosphate buffered saline (PBS) (for the baseline measurement) or methacholine (1.5625-12.5 mg/mL) for 1 minute and readings (sRaw) may be taken and averaged for 3 minutes after each nebulization.
Drug treatment protocol: Sterile solutions of compounds were prepared in 2% hydroxypropyl methylcellulose solution (Sigma-Aldrich, St. Louis, Mo.) and 2.5% polyethylene glycol (Sigma Aldrich, St. Louis, Mo.) for oral administration in a biological safety cabinet. A fine suspension was obtained by grinding the mixture with a mortar and pestle. Drugs were administered individually at 100 mg/kg by oral gavage (200 ul) with 20G gavage needles (Kent Scientific Corporation, Torrington Conn.) to groups of ova s/c BALB/c twice daily for 5 days during the ova challenge period. Mice received a single p.o. dose of the compounds just before airway parameter measurements. Compounds for i.p. injection were prepared in 10% DMSO, 40% propylene glycol, and 50% PBS and given as 100 ul injection. Mice were monitored daily after drug administration. Assessment of Airway hyper-responsiveness: Airway hyper-responsiveness to methacholine in conscious, spontaneously breathing animals was measured by DSI's Buxco® FinePointe Non-Invasive Airway Mechanics (NAM) instrument. Before measurements were taken, mice were acclimated to the chambers 15 minutes daily for 5 days. In addition, an ovalbumin sensitization and challenge protocol consists of randomized male BALB/c mice that were sensitized three times with intra-peritoneal (i.p.) injections of 2 mg/kg/d of ovalbumin (Ova) (Sigma-Aldrich, St. Louis, Mo.) emulsified in 2 mg of Alum (Imject Alum; Thermo Scientific, Pierce, Rockford, Ill.) on days 0, 7 and 14 in a total volume of 100 μL. The mice were then challenged intra-nasally (i.n.) with 1 mg/kg/d Ova for 5 days from days 23-27. Control mice were sensitized with Ova and challenged with saline. The chambers were also calibrated each time before data collection. Briefly, the nasal chamber in combination with the thoracic chamber allows the computation of specific airway resistance (sRaw). The FinePointe software computes specific airway resistance (sRaw) with all other ventilatory parameters derived by the NAM analyzer. Mice were exposed to aerosolized PBS (for the baseline measurement) or methacholine (1.5625-12.5 mg/mL) for 1 minute and readings were taken and averaged for 3 minutes after each nebulization. Data obtained were presented as sRaw versus the methacholine concentration (mg/mL) used to generate the aerosol. FIG. 5A-5F show compound effects on airway hyperresponsiveness. Specific airway resistance (sRaw) was measured at increasing dosages of methacholine by a DSI's Buxco FinePointe non-invasive airway mechanics instrument. Ova s/c BALB/c mice were administered all compounds via oral gavage, 100 mg/kg twice daily for 5 days. Data represent mean±SEM from 10 mice in each group. *, **, and *** indicate p<0.05, p<0.01, p<0.001 significance, respectively, compared to vehicle treated ova s/c BALB/c mice.

[2] = test system: inflammatory cells, eosinophils, CD4+ T cells in BALF; test: Inflammatory cell numbers in BALF by flow cytometry; assay type: in vivo, ova s/c BALB/c mice; conditions: 100 mg/kg twice daily for 5 days
Experimental: The change of the number of specific immune cells caused by compounds may be investigated in the bronchoalveolar lavage fluid (BALF) of Ova S/C mice. Therefore, a bronchoalveolar lavage may be carried out followed by the lysis of red blood cells. Incubation of cell-type specific antibodies with BALF may allow the quantification of leukocytes such as eosinophils and CD4^+ T-lymphocytes using flow cytometry.
Determination of anti-inflammatory properties of compounds were investigated in an allergen induced mouse model of asthma. At the day of analysis, bronchoalveolar lavage (BAL) was performed with 1 mL of Ca2+ and Mg2+ free PBS. Red blood cells (RBCs) were lysed using BD red blood cell lysis buffer (BD Pharmingen, San Jose, Calif.). BALF was split into four different tubes and non-specific binding to Fc receptors was blocked for 5 minutes using 6 μg/mL of 2.4G2 mouse BD Fc Block™ (BD Pharmingen, San Jose, Calif.). BALF cells were stained for 30 minutes at 4° C. in the dark with 100 μL BSA stain buffer (BD Pharmingen, San Jose, Calif.) containing the final concentrations of the following antibodies: anti-mouse CD45 APC (1:1000, 30-F11, Affymetrix eBiosciences, San Diego, Calif.), FITC rat anti-mouse CD4 (1:500, RM4-5, BD Pharmingen, San Jose, Calif.), PE Rat Anti-Mouse Siglec F (1:500, E50-2440, BD Pharmingen, San Jose, Calif.) and mouse CCR3 PE-conjugated antibody (1:40, 83101, R&D systems Inc, Minneapolis, Minn.). Flow cytometric studies were done using the BD FACS Calibur (BD Pharmingen, San Jose, Calif.) and data analyzed subsequently using Cell Quest pro software (BD Pharmingen, San Jose, Calif.). General gating for immune cells were followed. Total inflammatory cell count was obtained by running all samples on high (60 μL/min) for 180 seconds. The gated anti-mouse CD45 positive events in the fourth channel (FL4) were used to calculate the total inflammatory cell count as cells/mL. The frequencies of CCR3+/Siglec F were used for quantification of eosinophils and CD4+ for CD4+ T cell populations in their respective gates were multiplied by the total inflammatory cell count (cells/mL) to obtain the differential cell population. Statistical analysis: Data were analyzed using GraphPad Prism 4 (GraphPad Software, San Diego, Calif.) and expressed as mean±SEM. One-way analysis of variance (ANOVA) with Dunnet post hoc test or two-way ANOVA with Bonferroni post hoc test were performed for statistical difference for multiple groups. FIGS. 7A-7C show effects of compounds on inflammatory cells. Groups of 10 ova s/c BALB/c mice were administered compounds at 100 mg/kg twice daily for 5 days. BALF was harvested from each animal and used for (A) quantification of total inflammatory cells; (B) eosinophils; (C) CD4^+ T cells. Cells were stained with mouse CD45^+ APC antibody, and samples were analyzed with BD FACS Calibur on high flow rate (60 μl/minute) for 180 seconds. The gated positive events in the fourth channel (FL4) were used to calculate the total inflammatory cell count as cells/ml. Quantification of specific leukocyte population (B) eosinophils (C) CD4^+ T cell populations were stained with specific antibodies and detected by flow cytometry. Data represent mean±SEM from 10 mice in each group. *, **, and *** indicate p<0.05, p<0.01, and p<0.001 significance, respectively, compared to vehicle treated ova s/c BALB/c mice.

[3] = test system: HEK293; test: Cytotoxicity, CellTiter-Glo cell viability assay, kidney cells; assay type: cell-based, human
Experimental: The cytotoxicity of compounds may be evaluated by treating HEK293 human embryonic kidney cells with increasing concentrations of compounds for 24-48 hours followed by the quantification of living cells using Cell-Titer Glo (Promega).
Compounds with increased cytotoxicity can be identified using an in vitro cytotoxicity assay. Therefore, human embryonic kidney 293T (HEK293T) cell lines were purchased (ATCC) and cultured in 75 cm2 flasks (CellStar). Cells were grown in DMEM/High Glucose (Hyclone, #SH3024301) media to which non-essential amino acids (Hyclone, #SH30238.01), 10 mM HEPES (Hyclone, #SH302237.01), 5×106 units of penicillin and streptomycin (Hyclone, #SV30010), and 10% of heat inactivated fetal bovine serum (Gibco, #10082147) were added. Cells were harvested using 0.05% Trypsin (Hyclone, #SH3023601). The cell viability assay was evaluated using CellTiter-Glo™ Luminescent Cell Viability Assay Kit (Promega, Madison, Wis.), which contains luciferase and all its substrate except ATP. The controls for the cytotoxicity assay used were (E)-10-(bromotriphenylphosphoranyl)decyl 4-(4-(tert-butyl)phenyl)-4-oxobut-2-enoate (400 μM in DMSO, positive control) and DMSO (negative control). All luminescence readings were performed on a Tecan Infinite M1000 plate reader. Small volume transfers were performed on the Tecan Freedom EVO liquid handling system with a 100 nL pin tool transfer (V&P Scientific). Serial dilutions were done in 96-well polypropylene plates (Corning, #3365) and assays were conducted in 384-well white optical bottom plates. The assays were carried out in quadruplet in three independent runs. The data were normalized to the controls and if possible analyzed by nonlinear regression (GraphPad Prism).

[4] = test system: HEPG2; test: Cytotoxicity, liver cells; assay type: cell-based, human
[5] = Microsomal stability, human liver microsomes; assay type: in vitro ADME; conditions: 10 μM compound
Experimental: (§1) The metabolic stability of compounds in vivo can be estimated with the stability of compounds in the presence of liver microsomes. Therefore, 4 μL of 1 mM DMSO solution of test compound at a final concentration of 10 μM were preincubated at 37° C. for 5 minutes on a digital heating shaking dry bath (Fischer scientific, Pittsburgh, Pa.) in a mixture containing 282 μL of water, 80 μL of phosphate buffer (0.5 M, pH 7.4) 20 μL of NADPH Regenerating System Solution A (BD Bioscience, San Jose, Calif.) and 4 μL of NADPH Regenerating System Solution B (BD Bioscience, San Jose, Calif.) in a total volume of 391.2 μL. Following preincubation, the reaction was initiated by addition of 8.8 μL of either human liver microsomes (BD Gentest, San Jose, Calif.) or mouse liver microsomes (Life technologies, Rockford, Ill.) at a protein concentration of 0.5 mg/mL. Aliquots of 50 μL were taken at time intervals of 0 (without microsomes), 10, 20, 30, 40, 50 and 60 minutes. Each aliquot was added to 100 μL of cold acetonitrile solution containing 1 μM of verapamil HCL as internal standard. This was followed by sonication for 10 seconds and centrifugation at 10,000 rpm for 5 minutes. 100 μL of the supernatant was transferred into Spin-X HPLC filter tubes (Corning Incorporated, NY) and centrifuged at 13,000 rpm for 5 minutes. The filtrate was diluted 100-fold and subsequently analyzed by LC-MS/MS with Shimadzu LCMS 8040, (Shimadzu Scientific Instruments, Columbia, Md.). The ratio of the peak areas of the internal standard and test compound was calculated for every time point and the natural log of the ratio were plotted against time to determine the linear slope (k). The metabolic rate (k*C0/C), half-life (0.693/k), and […] (V*k) were calculated, where k is the slope, C0 is the initial concentration of test compound, C is the concentration of microsomes, and V is the volume of incubation in μL per microsomal protein in mg. All experiments were repeated two time in triplicates.

[6] = Microsomal stability, mouse liver microsomes; assay type: in vitro ADME; conditions: 10 μM compound
Experimental: as §1

[7] = test system: guinea pig airway smooth muscle; test: Relaxation of substance P contracted guinea pig tracheal rings; parameters: dose or concentration left out as unconfirmed
[8] = Pharmacokinetic analysis in blood, lungs and brain; conditions: mouse, 25 mg/kg oral gavage

Structure (SMILES) | airway hyperresponsiveness (sRaw) [1] | numbers of inflammatory cells in BALF [2] | HLM % remaining after 60 min [5] [%] | MLM % remaining after 60 min [6] [%] | further results
C[C@H]1N=C(c2ccccc2F)c2cc(C3CC3)ccc2-n2cnc(C(=O)O)c21 [GL-III-43, (R)-8-cyclopropyl-6-(2-fluorophenyl)-4-methyl-4H-benzo[f]imidazo[1,5-a][1,4]diazepine-3-carboxylic acid] | not able to alleviate airway hyperresponsiveness | did not modulate the numbers of inflammatory cells |  |  | 
CC(C)(C)OC(=O)c1ncn2c1[C@@H]1CCCN1C(=O)c1cc(O)ccc1-2 [RJ-02-67, tert-butyl (S)-7-hydroxy-9-oxo-11,12,13,13a-tetrahydro-9H-benzo[e]imidazo[5,1-c]pyrrolo[1,2-a][1,4]diazepine-1-carboxylate] |  |  | 90.6 ± 0.2 | 46.6 ± 0.3 | LD50 HEK293 (Kidney) ([3]; human, HEK293 (HEK293T) human embryonic kidney cells): >400 µM; LD50 HEPG2 (Liver) ([4]; human, HepG2 liver cells): >400 µM
COc1ccc2c(c1)C(=O)N1CCC[C@H]1c1c(-c3nnn[nH]3)ncn1-2 [RJ-03-57, (S)-7-methoxy-1-(1H-tetrazol-5-yl)-11,12,13,13a-tetrahydro-9H-benzo[e]imidazo[5,1-c]pyrrolo[1,2-a][1,4]diazepin-9-one] | not able to alleviate airway hyperresponsiveness |  | 94.3 ± 0.1 | 98.3 ± 0.2 | LD50 HEK293 (Kidney) [3]: >200 µM; LD50 HEPG2 (Liver) [4]: >200 µM; airway smooth muscle contractile force, guinea pig tracheal rings [7]: All investigated compounds except RJ-03-57 reduced the constriction of airway smooth muscle; absorption [8]: moderate absorption; clearance [8]: fast clearance
O=C(O)c1ncn2c1[C@@H]1CCCN1C(=O)c1cc(O)ccc1-2 [RJ-03-90, (S)-7-hydroxy-9-oxo-11,12,13,13a-tetrahydro-9H-benzo[e]imidazo[5,1-c]pyrrolo[1,2-a][1,4]diazepine-1-carboxylic acid] |  | did not modulate the numbers of inflammatory cells |  |  | 
